Assay results published in patent publication US20210275518A1, “METHODS OF USING REBASTINIB IN THE TREATMENT OF DISORDERS” (Deciphera Pharmaceuticals, LLC, priority 2020, published 2021).

Columns and labels:
[1] = test system: TIE2; assay: Pharmacodynamics: circulating Ang-2 levels (Part 1); type: in vivo, human; conditions: with exposure to higher doses of rebastinib in combination with paclitaxel; indicating TIE2 inhibition
From the text: This is an open-label Phase 1b/2 multicenter study in patients with advanced or metastatic solid tumors where paclitaxel may be considered appropriate treatment. Rebastinib will be administered in combination with paclitaxel in repeated 28-day cycles to primarily assess the safety, tolerability and preliminary efficacy of the combination. Adverse events (AEs) will be assessed, and laboratory values, vital sign measurements, electrocardiograms (ECGs), ophthalmologic examinations, physical examinations and Eastern Cooperative Oncology Group (ECOG) Performance Status (PS) will be obtained to evaluate the safety and tolerability of rebastinib when administered in combination with paclitaxel. Pharmacokinetic (PK) and pharmacodynamic (PD) samples will be collected at pre-specified time points.

[2] = test system: inflammatory breast cancer; assay: Phase 1b/2 rebastinib + paclitaxel, Part 2 Cohort 2 (RECIST v1.1); type: in vivo, human
From the text: (§1) Upon determination of the RP2D, Part 2 is initiated to dose up to 165 evaluable patients using the RP2D across five indication-specific cohorts. A Simon's two-stage design is applied to Part 2 to further evaluate the safety, tolerability, and preliminary efficacy of rebastinib in combination with paclitaxel in triple-negative breast (Cohort 1), inflammatory breast (Cohort 2), ovarian (Cohort 3), endometrial adenocarcinoma (Cohort 4), and gynecologic carcinosarcoma (Cohort 5) cancers. Each cohort initially enrolls up to 18 evaluable patients in the first stage. Patients must receive at least 1 dose of the combination and have 1 post-baseline assessment (including assessment of clinical progression) or be discontinued prior to the postbaseline disease assessment due to an AE at least possibly related to rebastinib, to be considered evaluable. Tumor response is assessed according to Response Evaluation Criteria in Solid Tumors (RECIST) Version 1.1. The decision to enroll patients beyond the first stage is based on response assessments obtained after the first post-dose response assessment of the last patient enrolled in the first stage of a cohort. […] If ≤4 responses are seen in a cohort, the cohort will be terminated. If >4 responses are seen prior to the last evaluable patient in the first stage, expanding the cohort may be triggered earlier. Enrollment in each cohort will pause between the first and second stage of the Simon two-stage for evaluation of response. Patients will receive study treatment until they develop progressive disease, experience unacceptable toxicity, or withdraw consent.

[3] = Pharmacokinetics of rebastinib given with carboplatin; type: in vivo; conditions: time point 2; 50 and 100 mg BID with carboplatin
Description: This is a Phase 1b/2 study where patients with mesothelioma are administered rebastinib in combination with carboplatin. The study follows a Simon 2-stage design at the MTD and R2PD. Safety and tolerability, PK and PD, and preliminary efficacy data was used to determine the RP2D. Upon determination of the RP2D or MTD, the Simon 2-stage design is initiated to dose evaluable patients using the RP2D or MTD across three indication-specific cohorts (breast cancer, ovarian cancer, and mesothelioma).

[4] = test system: endometrial adenocarcinoma; assay: Phase 1b/2 rebastinib + paclitaxel, Part 2 Cohort 4 (RECIST v1.1); type: in vivo, human
From the text: as §1
21 patients were enrolled and completed at least Cycle 1, Day 1 (C1D1); 18 of which had post baseline measurements. 16 of the patients treated with rebastinib were at a starting dose of 100 mg BID and 80 mg/m^2 weekly paclitaxel, of which the doses of 11 were reduced to 50 mg BID and 80 mg/m^2 weekly paclitaxel, and 5 patients were at a starting dose of 50 mg BID and 80 mg/m^2 weekly paclitaxel. Of the 21 patients who completed at least Cycle 1, Day 1, the median age was 66 years, all received at least 1 prior line of paclitaxel/carboplatin, and 20 (95%) received at least 2 prior anti-cancer therapies. Of the 21 patients who completed at least Cycle 1, Day 1, the median duration of treatment was 16 weeks. Of the 21 patients, 18 were determined to be efficacy evaluable patients (mITT).
At a third time point, 38 patients with endometrial cancer were enrolled in this portion of the study as a safety population. 16 of the patients treated with rebastinib were at a starting dose of 100 mg BID and 80 mg/m^2 weekly paclitaxel, of which the doses of 11 were reduced to 50 mg BID and 80 mg/m^2 weekly paclitaxel, and 22 patients were at a starting dose of 50 mg BID and 80 mg/m^2 weekly paclitaxel. 33 of the 38 patients met the met the modified intention-to-treat (mITT) criteria.

[5] = Cohort 4, time point 1, of the eight with stable disease at Cycle 3, Day 1, Cycle 5, Day 1
[6] = Cohort 4, time point 1, rebastinib + paclitaxel, Cycle 3, Day 1
[7] = Cohort 4, time point 2, 18 evaluable patients (mITT)
[8] = Cohort 4, time point 3, of 3 patients who had received Lenvatinib/pembrolizumab
[9] = Cohort 4, time point 4, 33 evaluable patients
[10] = Table 2, Cohort 4, time point 3, mITT N = 33, patients (%)
[11] = Table 2, Cohort 4, time point 3, n 11

SMILES: CNC(=O)c1cc(Oc2ccc(NC(=O)Nc3cc(C(C)(C)C)nn3-c3ccc4ncccc4c3)c(F)c2)ccn1 [rebastinib]
- Mean circulating Ang-2 levels [1]: increased
- Patients with partial response ([2]; Cycle 3, Day 1): two
- Patients with stable disease ([2]; Cycle 3, Day 1): one
- Patients with partial response ([2]; Cycle 3, Day 1, Cycle 5, Day 1, and Cycle 8, Day 1): one
- Patients with stable disease ([2]; both Cycle 3, Day 1 and Cycle 5, Day 1): one
- Rebastinib exposure [3]: dose proportional
- Patients with stable disease at Cycle 5, Day 1 and partial response at Cycle 8, Day 1 ([4]; Cohort 4, time point 1, of the eight with stable disease at Cycle 3, Day 1): one
- Patients with partial response [4, 5]: one
- Patients with stable disease [4, 5]: four
- Patients with partial response ([4]; Cohort 4, time point 1, of the four with partial response at Cycle 3, Day 1, Cycle 5, Day 1): two
- Patients with partial response ([4]; Cohort 4, time point 1, of the four with partial response at Cycle 3, Day 1, both Cycle 5, Day 1 and Cycle 8, Day 1): two
- Patients with partial response [4, 6]: four
- Patients with stable disease [4, 6]: Eight
- CBR at 8 weeks [4, 7]: 72%
- ORR [4, 7]: 39%
- Stable disease (SD) determinations [4, 7]: 6
- Partial response (PR) determinations ([4]; Cohort 4, time point 2, 18 evaluable patients (mITT), rebastinib 100 or 50 mg BID with weekly paclitaxel 80 mg/m^2): 7
- Clinical benefit rate at 16 weeks ([4]; Cohort 4, time point 3, 33 patients mITT): 53%
- Objective response rate (ORR) ([4]; Cohort 4, time point 3, 33 patients mITT, rebastinib 100 or 50 mg BID with weekly paclitaxel 80 mg/m^2): 33%
- ORR across subgroups ([4]; Cohort 4, time point 3, FIG. 7, subgroups by age, number of prior regimens, number of prior paclitaxel regimens, histology): consistent
- Patients with partial response [4, 8]: 2
- Patients with stable disease [4, 8]: 1
- Outcome of serious adverse events related (or possibly) to rebastinib ([4]; Cohort 4, time point 4): resolved after dose interruption
- Clinical benefit at 8 weeks [4, 9]: 70%
- Clinical benefit at 16 weeks [4, 9]: 54%
- Confirmed PRs [4, 9]: 8
- PRs [4, 9]: 11
- ORR ([4]; Cohort 4, time point 4, 33 evaluable patients, rebastinib 100 or 50 mg BID with weekly paclitaxel 80 mg/m^2): 33%
- KM median duration of response ([4]; Cohort 4, time point 4, 90% CI: 2.7, NE, median follow up 4.4 months): 7.4 months
- Median PFS ([4]; Cohort 4, time point 4, 90% CI: 3.7, 9.4): 6.2 months
- Best Overall Response: Confirmed Partial Response [4, 10]: 8 (24.2%)
- Best Overall Response: Not Evaluable: discontinued prior to radiological assessment [4, 10]: 5 (15.2%)
- Best Overall Response: Partial Response [4, 10]: 11 (33.3%)
- Best Overall Response: Progressive Disease [4, 10]: 6 (18.2%)
- Best Overall Response: Single Response Awaiting Confirmation [4, 10]: 1 (3.0%)
- Best Overall Response: Stable Disease [4, 10]: 11 (33.3%)
- Best Overall Response: Unconfirmed Single Response [4, 10]: 2 (6.1%)
- Duration of Response, Events (%) [4, 11]: 3 (27.3)
- Time to Response, Mean (SD) [4, 11]: 3.3 (1.7)
- Duration of Response, Kaplan-Meier Median (80% CI) ([4]; Table 2, Cohort 4, time point 3, n 11, NE: Not evaluated): 7.4 (7.4, NE)
